≈ marks a conversion by molar mass, not a printed value.

The nature of one data set: in vitro. It is filed as cell-based. Particulars: human, mt-4 cells. The procedure: (§1) A rapid, sensitive and automated assay procedure was used for the in-vitro evaluation of anti-HIV agents. An […] T4-cell line, MT-4, which was previously shown (Koyanagi et al., Int. J. Cancer, 36, 445-451, 1985) to be highly susceptible to and permissive for HIV infection, served as the target cell line. Inhibition of the HIV-induced cytopathic effect was used as the end point. The viability of both HIV- and mock-infected cells was assessed spectrophotometrically via the in-situ reduction of 3-(4,5-dimethylthiazol-2-yl)-2,5-diphenyltetrazolium bromide (MTT). The 50% cytotoxic dose (CD50 in µg/ml) was defined as the concentration of compound that reduced the absorbance of the mock-infected control sample by 50%. The percent protection achieved by the compound in HIV-infected cells was calculated by the following formula: ((ODT )HIV - (ODC )HIV)/((ODC )MOCK - (ODC )HIV) [formula] expressed in %, whereby (ODT)HIV is the optical density measured with a given concentration of the test compound in HIV-infected cells; (ODC)HIV is the optical density measured for the control untreated HIV-infected cells; (ODC)MOCK is the optical density measured for the control untreated mock-infected cells; all optical density values were determined at 540 nm. The dose achieving 50% protection according to the above formula was defined as the 50% effective dose (ED50 in µg/ml). The ratio of CD50 to ED50 was defined as the selectivity index (SI).

In the next data set the test system is HIV. As to the kind of experiment: Inhibition of HIV-induced cytopathic effect in MT-4 cells (MTT). In kind it is cell-based. Particulars: for EC50: Human immunodeficiency virus 1, MT4, dose achieving 50% protection of HIV-infected MT-4 cells, MTT, 540 nm, read-out: ED50 (50% effective dose); for SI (selectivity index): ratio of CD50 to ED50. The procedure:
as §1

Turning to `CCC(=CCN1Cc2cc(Cl)cc3[nH]c(=S)n(c23)C[C@@H]1C)CC.Cl` [compound 7, (-)-(S)-9-chloro-6-(3-ethyl-2-pentenyl)-4,5,6,7-tetrahydro-5-methylimidazo[4,5,1-jk][1,4]benzodiazepine-2(1H)-thione monohydrochloride], the CC50 in the data set “in vitro” is 5.2 µg/mL. Also, in the data set with HIV, the EC50 was found to be 0.006 µg/mL and the “SI (selectivity index)” value is given as 850.
The matching figures for `CCC(=CCN1Cc2c(C)ccc3[nH]c(=O)n(c23)C[C@@H]1C)CC` [compound 5, (+)-(S)-6-(3-ethyl-2-pentenyl)-4,5,6,7-tetrahydro-5,8-dimethylimidazo-[4,5,1-jk][1,4]benzodiazepin-2(1H)-one]: 14.3 µg/mL (≈ 45.6 µM), 0.038 µg/mL (≈ 0.121 µM) and 370.
On the same counts, the results for `CCC(=CCN1Cc2cc(Cl)cc3[nH]c(=O)n(c23)C[C@@H]1C)CC` [compound 2] are greater than 10 µg/mL, 0.032 µg/mL (≈ 0.0958 µM) and greater than 312.
